Laboratory results: patent US20020136789A1, “Use of tagetes minuta oil and its components as antiviral agents” (COUNCIL OF SCIENTIFIC & INDUSTRIAL RESEARCH, priority 2001, published 2002)
Several values for one entry are separate records, joined by “and”; a condition that tells them apart may be missing. Equal values may be shown once.

What was measured:
PVX [1] = conditions: susceptible viruses such as PVX; cited from earlier work
PNRSV = conditions: in vivo; cited from earlier work
PVX [2] = conditions: cited from earlier work
CaMV = conditions: in vivo; cited from earlier work
BGMV = conditions: in vivo; cited from earlier work
TMV = conditions: except during very early replicative steps following inoculation; cited from earlier work
SSV = conditions: in vivo; cited from earlier work
[3] = test system: Carnation vein mottle virus (CaVMV); experiment: Local lesion assay of CaVMV on Chenopodium amaranticolor leaves (test half leaf vs virus+buffer control); type: in vivo; conditions: for Percentage Inhibition of CaVMV, IInd Treatment: compounds after extraction, summary of three experiments; for Percentage Inhibition of CaVMV, IIIrd Treatment: compounds after storing at 0° C.; for No. of Lesions on Test / % inhibition / Average No. of lesions Test / Test (number of lesions): CaVMV; for No. of Lesions on Test: 24 hrs room temperature, ten leaves; for No. of Lesions on Test / % inhibition / Average No. of lesions Test: Chenopodium amaranticolor; for Test (number of lesions): compound stored at 0° C. for two months; for antiviral activity against CaVMV (in words): components tested individually in pure form
Experimental: (§1) Each concentration of whole Tagetes minuta oil and its pure isolated components were applied on 10 leaves so that the average could be taken.
(§2) The whole oil of Tagetes minuta and its pure components i.e. ocimene and dihydrotagetone were tested individually with virus cultures of CaVMV and CaRSV and applied on the leaves of Chenopodium amaranticolor. In all the experiments each concentration of three testing mixtures were applied on ten leaves of Chenopodium amaranticolor palnt. The isolated compounds were stored at 0° C. for two months and the experiments were repeated.
(§3) The Cultures of Carnation ring spot and Carnation vein motto viruses were maintained both in natural host and on Phaseolus vulgaris and Chenopodium quinoa which are maintenance and propagation host of these viruses respectively. For virus culture, leaves of fifteen days old individual virus inoculated host plants with CaVMV and CaRSV were ground in phosphate buffer pH 7.5 and the viruses were extracted separately in crude sap.
(§4) Activity of the above volatile oils were tested against Carnation ring spot and Carnation vein mottle virus in different dilutions. Most of the tests were performed by using 0.5% and 2.5% concentration of essential oils as the phytotoxic effect appeared on Chenopodium amaranticolor leaves, at higher concentrations. The 0.5% and 2.5% concentration of essential oils were mixed with crude sap containing each virus and incubated at room temperature for 24 hrs. After incubation, sap containing virus were inoculated individually on bioassay host Chenopodium amaranticolor after adding Cellite (as abrasive) to monitor the inhibitory effect. Following results were obtained in different concentrations.

[4] = test system: Carnation ring spot virus (CaRSV); experiment: Local lesion assay of CaRSV on Chenopodium amaranticolor leaves (test half leaf vs virus+buffer control); type: in vivo; conditions: for Percentage Inhibition of CaRSV, IInd Treatment: compounds after extraction, summary of three experiments; for Percentage Inhibition of CaRSV, IIIrd Treatment: compounds after storing at 0° C.; for No. of Lesions on Test / % inhibition / Average No. of lesions Test / Test (number of lesions): CaRSV; for No. of Lesions on Test: 24 hrs room temperature, ten leaves; for No. of Lesions on Test / % inhibition / Average No. of lesions Test: Chenopodium amaranticolor; for Test (number of lesions): compound stored at 0° C. for two months; for antiviral activity against CaRSV (in words): components tested individually in pure form
Experimental: as §1, §2, §3, §4

Cox B1 = conditions: concentrations 12-47 μg/ml; cited from earlier work
HSV-1 = conditions: concentrations 12-47 μg/ml; cited from earlier work
HIV replication = conditions: cited from earlier work
mosquito = conditions: in vivo; cited from earlier work
8 bacterial strains = conditions: cited from earlier work
[5] = 0.5% concentration mixed with crude sap
[6] = 2.5% concentration mixed with crude sap

NC(=O)c1ncn([C@@H]2O[C@H](CO)[C@@H](O)[C@H]2O)n1 [ribavirin, Ribavirin]
concentration needed to inhibit local lesion development and to prevent infection (PVX [1]): Approximately 1000 ppm
susceptibility of PNRSV (PNRSV): resistant
developing shoots into which virus spread was prevented (PVX [2]; 10 ppm, differentiating calli): 90%
inhibition of PVX in callus culture (PVX [2]; 100 ppm in the medium): not inhibited
effectiveness against CaMV (CaMV): relatively or completely ineffective
effectiveness against BGMV (BGMV): relatively or completely ineffective
susceptibility of TMV (TMV): much less susceptible than other viruses
effectiveness against SSV (SSV): relatively or completely ineffective

C=C/C(C)=C\CC=C(C)C [Ocimene, Z-β-ocimene]
Percentage Inhibition of CaVMV, IInd Treatment ([3]; 0.5%): 70.2%
Percentage Inhibition of CaVMV, IIIrd Treatment ([3]; 0.5%): 100%
Percentage Inhibition of CaVMV, IInd Treatment ([3]; 2.5%): 84.3%
Percentage Inhibition of CaVMV, IIIrd Treatment ([3]; 2.5%): 100%
No. of Lesions on Test [3, 5]: 66 and 70 and 65
% inhibition ([3]; 0.5% concentration): 71.05% and 63.50% and 72.1%
Average No. of lesions Test ([3]; 0.5% concentration): 6.6 and 7.0 and 6.5
Test (number of lesions) ([3]; 0.5% concentration): 0
No. of Lesions on Test [3, 6]: 43 and 40 and 38
% inhibition ([3]; 2.5% concentration): 83.58% and 84.00% and 85.66%
Average No. of lesions Test ([3]; 2.5% concentration): 4.3 and 4.0 and 3.8
Test (number of lesions) ([3]; 2.5% concentration): 0
antiviral activity against CaVMV (in words) [3]: enhanced antiviral activity
Percentage Inhibition of CaRSV, IInd Treatment ([4]; 0.5%): 67.9%
Percentage Inhibition of CaRSV, IIIrd Treatment ([4]; 0.5%): 100%
Percentage Inhibition of CaRSV, IInd Treatment ([4]; 2.5%): 80.9%
Percentage Inhibition of CaRSV, IIIrd Treatment ([4]; 2.5%): 100%
No. of Lesions on Test [4, 5]: 60 and 65 and 58
% inhibition ([4]; 0.5% concentration): 69.6% and 66.6% and 67.7%
Average No. of lesions Test ([4]; 0.5% concentration): 6.0 and 6.5 and 5.8
Test (number of lesions) ([4]; 0.5% concentration): 0
No. of Lesions on Test [4, 6]: 40 and 25 and 35
% inhibition ([4]; 2.5% concentration): 80.4% and 81.4% and 81.0%
Average No. of lesions Test ([4]; 2.5% concentration): 4.0 and 2.5 and 3.5
Test (number of lesions) ([4]; 2.5% concentration): 0
antiviral activity against CaRSV (in words) [4]: enhanced antiviral activity

O=c1c(O)c(-c2ccccc2)oc2cc(O)cc(O)c12 [galangin]
antiviral activity against Cox B1 (Cox B1): significant antiviral activity
antiviral activity against HSV-1 (HSV-1): significant antiviral activity

CC1=CC[C@@H]([C@@H](C)[C@H]2CC[C@@]3(C)C4=C(C=C(CCC(=O)O)C(=C(C)C)C=C4)CC[C@]23C)OC1=O [Compound 3]
therapeutic index (HIV replication; HIV replication): greater than 71.4
EC50, inhibition of HIV replication (HIV replication): 1400 µg/mL

C=C/C(C)=C/C(=O)C=C(C)C [5-E Ocimenone]
mosquito larvaecideal activity (mosquito): mosquito larvaecideal activity

C=CC(C)CC(=O)CC(C)C (stereo not shown) [Dihydrotagetone, dihydrotagetone]
Percentage Inhibition of CaVMV, IInd Treatment ([3]; 0.5%): 72.2%
Percentage Inhibition of CaVMV, IIIrd Treatment ([3]; 0.5%): 100%
Percentage Inhibition of CaVMV, IInd Treatment ([3]; 2.5%): 83.6%
Percentage Inhibition of CaVMV, IIIrd Treatment ([3]; 2.5%): 100%
No. of Lesions on Test [3, 5]: 38 and 40 and 45
% inhibition ([3]; 0.5% concentration): 73.04% and 73.3% and 70.3%
Average No. of lesions Test ([3]; 0.5% concentration): 4.22 and 4.44 and 5.00
Test (number of lesions) ([3]; 0.5% concentration): 0
No. of Lesions on Test [3, 6]: 31 and 25 and 38
% inhibition ([3]; 2.5% concentration): 83.0% and 87.0% and 81.0%
Average No. of lesions Test ([3]; 2.5% concentration): 3.44 and 2.77 and 4.20
Test (number of lesions) ([3]; 2.5% concentration): 0
antiviral activity against CaVMV (in words) [3]: enhanced antiviral activity
Percentage Inhibition of CaRSV, IInd Treatment ([4]; 0.5%): 71.6%
Percentage Inhibition of CaRSV, IIIrd Treatment ([4]; 0.5%): 100%
Percentage Inhibition of CaRSV, IInd Treatment ([4]; 2.5%): 81.06%
Percentage Inhibition of CaRSV, IIIrd Treatment ([4]; 2.5%): 100%
No. of Lesions on Test [4, 5]: 32 and 41 and 42
% inhibition ([4]; 0.5% concentration): 72.1% and 70.9% and 72.0%
Average No. of lesions Test ([4]; 0.5% concentration): 4.22 and 4.44 and 5.00
Test (number of lesions) ([4]; 0.5% concentration): 0
% inhibition ([4]; 2.5% concentration): 81.8% and 82.0% and 79.4%
Average No. of lesions Test ([4]; 2.5% concentration): 2.8 and 2.5 and 4.0
Test (number of lesions) ([4]; 2.5% concentration): 0
antiviral activity against CaRSV (in words) [4]: enhanced antiviral activity

CC12CCC(CC1=O)C2(C)C (stereo not shown) [Camphor, camphor]
activity against 8 bacterial strains (8 bacterial strains): almost inactive

CC12CCC(CC1)C(C)(C)O2 [1,8 cineole]
activity against 8 bacterial strains (8 bacterial strains): exhibited activity

CC(C)[C@]12CC(=O)[C@H](C)[C@H]1C2 [thujone]
activity against 8 bacterial strains (8 bacterial strains): exhibited activity
